Data taken from patent publication US20180318287A1, “Imidazo[4,5-c]quinolin-2-one Compounds and Their Use in Treating Cancer” (ASTRAZENECA AB, priority 2015, published 2018).

Assays:
Type in all cases: cell-based
ATM kinase = molecular target: T1, ATM kinase (Homo sapiens, UniProt Q13315); experiment: Assay a): ATM cellular potency (pATM Ser1981 in irradiated HT29 cells); conditions: HT29 cells, X-ray irradiation, pATM Ser1981; Table 2; read-out: Assay a) ATM Cell IC50
T1 construct: endogenous in cells; host or cells: HT29 cells (ECACC #85061109)
Method: Most ATM molecules in the cell are rapidly phosphorylated on this site after doses of radiation as low as 0.5 Gy, and binding of a phosphospecific antibody is detectable after the introduction of only a few DNA double-strand breaks in the cell.
The rationale of the p ATM assay is to identify inhibitors of ATM in cells. HT29 cells are incubated with test compounds for 1 hr prior to X-ray-irradiation. 1 h later the cells are fixed and stained for p ATM (Ser1981). The fluorescence is read on the arrayscan imaging platform.
The following morning compounds of Formula (I) in 100% DMSO were added to assay plates by acoustic dispensing. After 1 h incubation at 37° C. and 5% CO2, plates (up to 6 at a time) were irradiated using the X-RAD 320 instrument (PXi) with equivalent to ˜600cGy. Plates were returned to the incubator for a further 1 h. […] Then 20 μl of 0.1% Triton X100 in PBS was added and incubated for 20 minutes at r.t., to permeabalise cells. Then the plates were washed once with […] PBS, using a Biotek EL405 plate washer.
After 1 h incubation at r.t., the plates were washed three times with 50 μl/well PBS, using a Biotek EL405 plate washer, and plates were sealed and kept in PBS at 4° C. until read. Plates were read using an ArrayScan VTI instrument, using an XF53 filter with 10× objective.

mTOR = molecular target: T2, mTOR (Homo sapiens, UniProt P42345); experiment: Assay d): mTOR cellular potency (phospho-AKT Ser473 in MDA-MB-468 cells); conditions: MDA-MB-468 cells, phospho-AKT Ser473, 2 h; Table 2; read-out: Assay d) mTOR Cell IC50
T2 construct: phosphorylation of the Akt protein at Ser473 (AKT lies downstream of PI3Kα in the signal transduction pathway) in the MDA-MB-468 cells; endogenous in cells; host or cells: MDA-MB-468 cells (ATCC HTB 132)
Method: This assay was used to measure mTOR inhibition in cells. The aim of the phospho-AKT cell based mechanism of action assay using the Acumen Explorer is to identify inhibitors of either PI3Kα or mTOR-Rictor (Rapamycin insensitive companion of mTOR). This is measured by any decrease in the phosphorylation of the Akt protein at Ser473 (AKT lies downstream of PI3Kα in the signal transduction pathway) in the MDA-MB-468 cells following treatment with compound.
MDA-MB-468 cells (human breast adenocarcinoma #ATCC HTB 132) were seeded at 1500 cells/well in 40 μl of DMEM containing 10% FBS and 1% glutamine into Greiner 384 well black flat-bottomed plates. Cell plates were incubated for 18 h in a 37° C. incubator before dosing with compounds of Formula (I) in 100% DMSO using acoustic dispensing. Compounds were dosed in a 12 point concentration range into a randomised plate map. Control wells were generated either by dosing of 100% DMSO (max signal) or addition of a reference compound (a PI3K-βinhibitor) that completely eliminated the pAKT signal (min control). Plates were incubated at 37° C. for 2 h; cells were then fixed by the addition of 10 μl of a 3.7% formaldehyde solution. After 30 minutes the plates were washed with PBS using a Tecan PW384 plate washer. Wells were blocked and cells permeabilised with the addition of 40 μl of PBS containing 0.5% Tween20 and 1% Marvel™ (dried milk powder) and incubated for 60 minutes at r.t. The plates were washed with PBS containing 0.5% (v/v) Tween20 and 20 μl rabbit anti-phospho AKT Ser473 (Cell Signalling Technologies, #3787) in same PBS-Tween+1% Marvel™ was added and incubated overnight at 4° C.
Plates were washed 3 times with PBS+0.05% Tween 20 using a Tecan PW384. 20 μl of secondary antibody Alexa Fluor 488 anti-Rabbit (Molecular Probes, #A11008) diluted in PBS+0.05% Tween20 containing 1% Marvel™ was added to each well and incubated for 1 h at r.t. Plates were washed three times as before then 20 μl PBS added to each well and plates sealed with a black plate sealer.
The plates were read on an Acumen plate reader as soon as possible, measuring green fluorescence after excitation with 488 nm laser. Using this system IC50 values were generated and quality of plates was determined by control wells. Reference compounds were run each time to monitor assay performance.

ATR kinase = molecular target: T3, ATR kinase (Homo sapiens, UniProt Q13535); experiment: Assay b): ATR cellular potency (pChk1 Ser345 in HT29 cells after 4NQO); conditions: HT29 cells, 4NQO, pChk1 Ser345; Table 2; read-out: Assay b) ATR Cell IC50
T3 construct: endogenous in cells; host or cells: HT29 cells (ECACC #85061109)
Method: ATR is a PI 3-kinase-related kinase which phosphorylates multiple substrates on serine or threonine residues in response to DNA damage during or replication blocks. Chk1, a downstream protein kinase of ATR, plays a key role in DNA damage checkpoint control. Activation of Chk1 involves phosphorylation of Ser317 and Ser345 (the latter regarded as the preferential target for phosphorylation/activation by ATR).
The following morning compound of Formula (I) in 100% DMSO were added to assay plates by acoustic dispensing. After 1 h incubation at 37° C. and 5% CO2, 40 nl of 3 mM 4NQO in 100% DMSO was added to all wells by acoustic dispensing, except minimum control wells which were left untreated with 4NQO to generate a null response control. Plates were returned to the incubator for a further 1 h. […] Then 20 μl of 0.1% Triton X100 in PBS was added and incubated for 10 minutes at r.t., to permeabalise cells. Then the plates were washed once with 50 μl/well PBS, using a Biotek EL405 plate washer.
After 2 h incubation at r.t., the plates were washed three times with 50 μl/well PBS, using a Biotek EL405 plate washer, and plates were then sealed with black plate seals until read. Plates were read using an ArrayScan VTI instrument, using an XF53 filter with 10× objective.

T3 sequence (Q13535 whole entry): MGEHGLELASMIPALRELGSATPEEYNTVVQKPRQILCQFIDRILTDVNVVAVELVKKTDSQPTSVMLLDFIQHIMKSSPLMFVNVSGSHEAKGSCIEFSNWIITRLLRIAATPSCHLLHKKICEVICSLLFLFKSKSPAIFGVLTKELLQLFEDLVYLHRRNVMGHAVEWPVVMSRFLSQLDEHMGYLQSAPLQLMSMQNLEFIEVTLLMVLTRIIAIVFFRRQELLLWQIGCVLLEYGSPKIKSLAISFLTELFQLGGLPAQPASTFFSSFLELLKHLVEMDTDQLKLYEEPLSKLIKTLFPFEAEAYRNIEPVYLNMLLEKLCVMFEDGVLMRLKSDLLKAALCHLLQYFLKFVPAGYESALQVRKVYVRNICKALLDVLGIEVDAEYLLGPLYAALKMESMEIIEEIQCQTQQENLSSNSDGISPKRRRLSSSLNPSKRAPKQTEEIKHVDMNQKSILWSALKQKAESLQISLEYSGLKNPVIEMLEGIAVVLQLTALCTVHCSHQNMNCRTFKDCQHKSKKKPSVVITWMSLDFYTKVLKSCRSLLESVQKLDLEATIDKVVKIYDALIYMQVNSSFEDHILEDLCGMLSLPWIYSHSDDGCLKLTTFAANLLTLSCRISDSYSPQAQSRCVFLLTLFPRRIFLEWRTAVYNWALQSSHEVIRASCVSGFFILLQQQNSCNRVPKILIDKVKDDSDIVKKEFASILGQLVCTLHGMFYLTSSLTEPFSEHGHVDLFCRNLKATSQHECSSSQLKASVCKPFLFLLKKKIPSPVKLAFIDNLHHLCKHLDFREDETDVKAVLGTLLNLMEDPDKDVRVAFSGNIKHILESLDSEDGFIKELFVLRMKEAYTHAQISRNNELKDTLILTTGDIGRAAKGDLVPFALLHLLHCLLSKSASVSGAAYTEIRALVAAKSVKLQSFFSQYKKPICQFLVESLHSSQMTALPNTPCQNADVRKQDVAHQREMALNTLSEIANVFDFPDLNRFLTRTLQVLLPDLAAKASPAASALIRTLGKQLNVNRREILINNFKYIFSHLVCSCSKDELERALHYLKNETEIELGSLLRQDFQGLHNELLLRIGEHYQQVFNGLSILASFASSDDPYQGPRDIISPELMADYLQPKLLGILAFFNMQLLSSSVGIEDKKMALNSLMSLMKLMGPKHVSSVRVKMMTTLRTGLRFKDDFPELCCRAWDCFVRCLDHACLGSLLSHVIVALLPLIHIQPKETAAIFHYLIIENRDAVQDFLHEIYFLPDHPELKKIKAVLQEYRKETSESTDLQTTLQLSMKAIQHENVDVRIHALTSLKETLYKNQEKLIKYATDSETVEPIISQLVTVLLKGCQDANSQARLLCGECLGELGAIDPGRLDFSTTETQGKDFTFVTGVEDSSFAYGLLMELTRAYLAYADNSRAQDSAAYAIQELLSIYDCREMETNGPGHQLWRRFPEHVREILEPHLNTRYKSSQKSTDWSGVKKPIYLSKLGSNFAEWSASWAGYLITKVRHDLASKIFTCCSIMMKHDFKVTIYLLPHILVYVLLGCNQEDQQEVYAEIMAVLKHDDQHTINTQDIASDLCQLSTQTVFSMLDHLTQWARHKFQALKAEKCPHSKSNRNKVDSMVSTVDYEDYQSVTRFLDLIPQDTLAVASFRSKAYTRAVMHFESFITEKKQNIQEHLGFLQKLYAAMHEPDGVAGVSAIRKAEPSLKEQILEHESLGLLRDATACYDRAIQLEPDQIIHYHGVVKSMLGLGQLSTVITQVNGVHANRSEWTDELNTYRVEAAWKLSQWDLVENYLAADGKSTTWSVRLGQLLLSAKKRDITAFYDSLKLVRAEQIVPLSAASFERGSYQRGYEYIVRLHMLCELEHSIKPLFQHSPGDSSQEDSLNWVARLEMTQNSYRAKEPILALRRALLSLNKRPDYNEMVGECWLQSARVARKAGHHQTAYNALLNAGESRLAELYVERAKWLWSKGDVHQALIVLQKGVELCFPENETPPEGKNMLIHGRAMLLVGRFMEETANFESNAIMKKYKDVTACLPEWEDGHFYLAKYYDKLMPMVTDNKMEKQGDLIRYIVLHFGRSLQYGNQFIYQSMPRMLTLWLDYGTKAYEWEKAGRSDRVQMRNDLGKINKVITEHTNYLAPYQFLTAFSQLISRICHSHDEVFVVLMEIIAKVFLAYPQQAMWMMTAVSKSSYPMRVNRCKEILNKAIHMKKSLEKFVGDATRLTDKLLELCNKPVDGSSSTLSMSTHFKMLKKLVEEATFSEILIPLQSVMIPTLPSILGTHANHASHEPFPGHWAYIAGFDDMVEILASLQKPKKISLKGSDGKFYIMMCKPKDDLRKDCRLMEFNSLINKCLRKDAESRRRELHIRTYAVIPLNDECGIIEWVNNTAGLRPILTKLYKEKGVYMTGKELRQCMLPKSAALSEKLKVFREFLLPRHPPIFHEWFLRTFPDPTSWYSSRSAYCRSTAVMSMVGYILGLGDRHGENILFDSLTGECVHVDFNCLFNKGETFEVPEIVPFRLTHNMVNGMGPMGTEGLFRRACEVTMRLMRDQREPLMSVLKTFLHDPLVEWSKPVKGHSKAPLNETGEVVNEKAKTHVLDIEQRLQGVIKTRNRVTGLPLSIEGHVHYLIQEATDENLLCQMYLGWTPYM
T3 sequence (Q8WXE1 whole entry partner): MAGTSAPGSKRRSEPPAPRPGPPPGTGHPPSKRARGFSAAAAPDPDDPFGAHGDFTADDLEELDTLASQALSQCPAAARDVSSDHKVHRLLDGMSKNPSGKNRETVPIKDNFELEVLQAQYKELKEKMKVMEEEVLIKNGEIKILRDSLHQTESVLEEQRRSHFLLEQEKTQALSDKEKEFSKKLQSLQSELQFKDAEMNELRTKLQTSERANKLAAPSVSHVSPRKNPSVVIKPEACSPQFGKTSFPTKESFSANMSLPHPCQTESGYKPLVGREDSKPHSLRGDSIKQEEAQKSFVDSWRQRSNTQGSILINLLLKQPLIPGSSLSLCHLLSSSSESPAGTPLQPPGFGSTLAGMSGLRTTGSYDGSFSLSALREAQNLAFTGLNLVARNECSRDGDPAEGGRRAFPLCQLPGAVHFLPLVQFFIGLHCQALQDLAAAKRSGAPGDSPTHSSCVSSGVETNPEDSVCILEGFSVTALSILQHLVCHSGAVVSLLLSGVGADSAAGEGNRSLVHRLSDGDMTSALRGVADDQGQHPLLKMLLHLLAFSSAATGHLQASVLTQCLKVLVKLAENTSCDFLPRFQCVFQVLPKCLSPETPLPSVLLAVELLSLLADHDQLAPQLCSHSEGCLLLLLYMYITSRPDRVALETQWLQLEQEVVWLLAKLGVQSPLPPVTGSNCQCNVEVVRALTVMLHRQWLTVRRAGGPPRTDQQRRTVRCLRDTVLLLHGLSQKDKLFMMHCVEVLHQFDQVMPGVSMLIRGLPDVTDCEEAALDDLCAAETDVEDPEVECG

| Compound | IC50 (ATM kinase) | IC50 (mTOR) | IC50 (ATR kinase) |
| --- | --- | --- | --- |
| CO[C@H]1CC[C@@H](n2c(=O)n(C)c3cnc4ccc(-c5ccc(OCCCN(C)C)cc5)cc4c32)CC1 [Example 25, 8-[4-[3-(dimethylamino)propoxy]phenyl]-1-(cis-4-methoxycyclohexyl)-3-methyl-imidazo[4,5-c]quinolin-2-one] | 0.089 nM | 879 nM | 21000 nM |
| CO[C@H]1C[C@H](n2c(=O)n(C)c3cnc4ccc(-c5ccc(OCCCN6CCCC6)cc5)cc4c32)C1 [Example 42, 1-(trans-3-methoxycyclobutyl)-3-methyl-8-[4-(3-pyrrolidin-1-ylpropoxy)phenyl]imidazo[4,5-c]quinolin-2-one] | 0.689 nM | 2170 nM | > 30000 nM |
| CO[C@H]1C[C@@H](n2c(=O)n(C)c3cnc4ccc(-c5ccc(OCCCN6CCCCC6)cc5)cc4c32)C1 [Example 43, 1-(cis-3-methoxycyclobutyl)-3-methyl-8-[4-[3-(1-piperidyl)propoxy]phenyl]imidazo[4,5-c]quinolin-2-one] | 0.254 nM | 3630 nM | > 30000 nM |
| CN(C)CCCOc1ccc(-c2ccc3ncc4c(c3c2)n(C2CCOCC2)c(=O)n4C)cc1 [Example 44, 8-[4-[3-(dimethylamino)propoxy]phenyl]-3-methyl-1-tetrahydropyran-4-yl-imidazo[4,5-c]quinolin-2-one] | 0.364 nM | 6990 nM | > 21700 nM |
| CN(C)CCCOc1ccc(-c2cc3c(cc2F)ncc2c3n(C3CCOCC3)c(=O)n2C)cc1 [Example 45, 8-[4-[3-(Dimethylamino)propoxy]phenyl]-7-fluoro-3-methyl-1-tetrahydropyran-4-yl-imidazo[4,5-c]quinolin-2-one] | 3.95 nM | 8650 nM | 20000 nM |
| CN(C)CCOc1ccc(-c2ccc3ncc4c(c3c2)n([C@@H]2CCCOC2)c(=O)n4C)cc1 [Example 48, 8-[4-[2-(dimethylamino)ethoxy]phenyl]-3-methyl-1-[(3R)-tetrahydropyran-3-yl]imidazo[4,5-c]quinolin-2-one] | 24.7 nM | 1780 nM | > 26800 nM |
| CO[C@H]1C[C@@H](n2c(=O)n(C)c3cnc4ccc(-c5ccc(OCCN6CCCC6)cc5)cc4c32)C1 [Example 49, 1-(3-(cis)methoxycyclobutyl)-3-methyl-8-[4-(2-pyrrolidin-1-ylethoxy)phenyl]imidazo[4,5-c]quinolin-2-one] | 36.1 nM | ≥ 30000 nM | > 30000 nM |
| Cn1c(=O)n([C@@H]2CCCOC2)c2c3cc(-c4ccc(OCCN5CCCC5)cc4)ccc3ncc21 [Example 50, 3-methyl-8-[4-(2-pyrrolidin-1-ylethoxy)phenyl]-1-[(3R)-tetrahydropyran-3-yl]imidazo[4,5-c]quinolin-2-one] | 13.4 nM | ≥ 30000 nM | > 25500 nM |
| Cn1c(=O)n([C@H]2CCCOC2)c2c3cc(-c4ccc(OCCN5CCCC5)cc4)ccc3ncc21 [Example 51, 3-methyl-8-[4-(2-pyrrolidin-1-ylethoxy)phenyl]-1-[(3S)-tetrahydropyran-3-yl]imidazo[4,5-c]quinolin-2-one] | 10.2 nM | 1760 nM | > 30000 nM |
| CO[C@H]1CC[C@H](n2c(=O)n(C)c3cnc4ccc(-c5ccc(OCCN(C)C)cc5)cc4c32)C1 [Example 52, 8-[4-[2-(dimethylamino)ethoxy]phenyl]-1-[(1S,3S)-3-methoxycyclopentyl]-3-methyl-imidazo[4,5-c]quinolin-2-one] | 3.57 nM | 5630 nM | 21900 nM |
| CN(C)CCOc1ccc(-c2ccc3ncc4c(c3c2)n(C2CCC2)c(=O)n4C)cc1 [Example 53, 1-cyclobutyl-8-[4-[2-(dimethylamino)ethoxy]phenyl]-3-methyl-imidazo[4,5-c]quinolin-2-one] | 9.38 nM | 10000 nM | > 30000 nM |
| CN(C)CCOc1ccc(-c2ccc3ncc4c(c3c2)n(C2CCOCC2)c(=O)n4C)cc1 [Example 54, 8-[4-[2-(dimethylamino)ethoxy]phenyl]-3-methyl-1-tetrahydropyran-4-yl-imidazo[4,5-c]quinolin-2-one] | 11.1 nM | 7730 nM | > 24700 nM |
| CO[C@H]1C[C@@H](n2c(=O)n(C)c3cnc4ccc(-c5ccc(OCCN(C)C)cc5)cc4c32)C1 [Example 55, 8-[4-[2-(dimethylamino)ethoxy]phenyl]-1-(3-(cis)methoxycyclobutyl)-3-methyl-imidazo[4,5-c]quinolin-2-one] | 11.3 nM | 4440 nM | > 30000 nM |
| CN(C)CCOc1ccc(-c2cc3c(cc2F)ncc2c3n(C3CCOCC3)c(=O)n2C)cc1 [Example 56, 8-[4-[2-(Dimethylamino)ethoxy]phenyl]-7-fluoro-3-methyl-1-tetrahydropyran-4-yl-imidazo[4,5-c]quinolin-2-one] | 53.1 nM | 29200 nM | 9850 nM |
